One assay deals with T1, M3 muscarinic receptor (Rattus norvegicus, UniProt P08483).
T1 construct: from tissue; host or cells: rat submandibular gland membrane homogenate
In words: Radioligand binding assay, [3H]-N-methylscopolamine, rat submandibular gland membranes. To be noted: [3H]NMS, Ki by Cheng & Prusoff; for Ki: read-out: Receptor Binding Assay pKi M3 (converted). How it is done:
(§1) The affinity of test compounds for M2 and M3 muscarinic receptor subtypes was determined by [^3H]—N-methylscopolamine binding studies using rat heart and submandibular gland respectively as described by Moriya et al., (Life Sci., 1999,64(25):2351-2358) with minor modifications.
(§2) Membrane preparation: Submandibular glands and heart were isolated and placed in ice cold homogenizing buffer (HEPES 20 mM, 10 mM EDTA, pH 7.4) immediately after sacrifice. The tissues were homogenized in 10 volumes of homogenizing buffer and the homogenate was filtered through two layers of wet gauze and filtrate was centrifuged at 500 g for 10 min. The supernatant was subsequently centrifuged at 40,000 g for 20 min. The pellet thus obtained was resuspended in same volume of assay buffer (HEPES 20 mM, EDTA 5 mM, pH 7.4) and were stored at −70° C. until the time of assay.
(§3) Ligand binding assay The compounds were dissolved and diluted in DMSO. The membrane homogenates (150-250 μg protein) were incubated in 250 μl of assay buffer (HEPES 20 mM, pH 7.4) at 24-25° C. for 3 h. Non-specific binding was determined in the-presence of 1 μM atropine. The incubation was terminated by vacuum filtration over GF/B fiber filters(Wallac). The filters were then washed with ice cold 50 mM Tris HCl buffer (pH 7.4). The filter mats were dried and bound radioactivity retained on filters was counted. The IC50 & Kd were estimated by using the non-linear curve fitting program using G Pad Prism software. The value of inhibition constant Ki was calculated from competitive binding studies by using Cheng & Prusoff equation (Biochem Pharmacol, 1973,22: 3099-3108), Ki=IC50/(1+L/Kd), where L is the concentration of [^3H]NMS used in the particular experiment.

The target in a further assay is T2, M2 muscarinic receptor (Rattus norvegicus, UniProt P10980).
T2 construct: from tissue; host or cells: rat heart membrane homogenate
T2 sequence (P10980 1-466): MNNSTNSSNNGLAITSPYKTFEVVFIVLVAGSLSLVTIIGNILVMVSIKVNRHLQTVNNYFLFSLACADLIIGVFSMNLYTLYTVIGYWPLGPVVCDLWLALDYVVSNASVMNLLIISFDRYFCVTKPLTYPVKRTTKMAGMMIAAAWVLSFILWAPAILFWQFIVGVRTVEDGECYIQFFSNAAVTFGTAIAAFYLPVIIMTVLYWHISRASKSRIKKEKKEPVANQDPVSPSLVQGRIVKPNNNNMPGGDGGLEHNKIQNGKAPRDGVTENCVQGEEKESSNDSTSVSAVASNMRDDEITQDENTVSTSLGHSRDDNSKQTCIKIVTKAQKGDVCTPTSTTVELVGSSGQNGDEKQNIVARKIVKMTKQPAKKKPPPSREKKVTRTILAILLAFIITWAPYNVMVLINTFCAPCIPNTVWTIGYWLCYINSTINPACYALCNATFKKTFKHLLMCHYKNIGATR
In words: Radioligand binding assay, [3H]-N-methylscopolamine, rat heart membranes. To be noted: [3H]NMS, Ki by Cheng & Prusoff; for Ki: read-out: Receptor Binding Assay pKi M2 (converted). The procedure: as §1, §2, §3

For another assay, the system named is isolated rat bladder. In words: Functional experiments using isolated rat bladder (carbachol-induced contraction). To be noted: isolated rat bladder strips, carbachol concentration response curve, antagonist added 20 min prior. The procedure:
Functional Experiments Using Isolated Rat Bladder:
Animals were euthanized by overdose of urethane and whole bladder was isolated and removed rapidly and placed in ice cold Tyrode buffer with the following composition (mMol/L) NaCl 137; KCl 2.7; CaCl2 1.8; MgCl2 0.1; NaHCO3 11.9; NaH2PO4 0.4; Glucose 5:55 and continuously gassed with 95% O2 and 5% CO2.
The bladder was cut into longitudinal strips (3 mm wide and 5-6 mm long) and mounted in 10 ml organ baths at 30° C., with one end connected to the base of the tissue holder and the other end connected to a polygraph through a force displacement transducer. Each tissue was maintained at a constant basal tension of 2 g and allowed to equilibrate for 1 hour during which the PSS was changed every 15 min. At the end of equilibration period the stabilization of the tissue contractile response was assessed with 1 μmol/L of Carbachol consecutively for 2-3 times. Subsequently a cumulative concentration response curve to carbachol (10-9 mol/L to 3×10^−5 mol/L) was obtained. After several washes, once the baseline was achieved, cumulative concentration response curve was obtained in presence of NCE (NCE added 20 min. prior to the second CRC).
The contractile results were expressed as % of control E max. ED50 values were calculated by fitting a non-linear regression curve (Graph Pad Prism). PKB values were calculated by the formula pKB=−log [(molar concentration of antagonist/(dose ratio−1))]
dose ratio=ED50 in the presence of antagonist/ED50 in the absence of antagonist.

Some results are limits rather than exact numbers.

T1 sequence (P08483 whole entry): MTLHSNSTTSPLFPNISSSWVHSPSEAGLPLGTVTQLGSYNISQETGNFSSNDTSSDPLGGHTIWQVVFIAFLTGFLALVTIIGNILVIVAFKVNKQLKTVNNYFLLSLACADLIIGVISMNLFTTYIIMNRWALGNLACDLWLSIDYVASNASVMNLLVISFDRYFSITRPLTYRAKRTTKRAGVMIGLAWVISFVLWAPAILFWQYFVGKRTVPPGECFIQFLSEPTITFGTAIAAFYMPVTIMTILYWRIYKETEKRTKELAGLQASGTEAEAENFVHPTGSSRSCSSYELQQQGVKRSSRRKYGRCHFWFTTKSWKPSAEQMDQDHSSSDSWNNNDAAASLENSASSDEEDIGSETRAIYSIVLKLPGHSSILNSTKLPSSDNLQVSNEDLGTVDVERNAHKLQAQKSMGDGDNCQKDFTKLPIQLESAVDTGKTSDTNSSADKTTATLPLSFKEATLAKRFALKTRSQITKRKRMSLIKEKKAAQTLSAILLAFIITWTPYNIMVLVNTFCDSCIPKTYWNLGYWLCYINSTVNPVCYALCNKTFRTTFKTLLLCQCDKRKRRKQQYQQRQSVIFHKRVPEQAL

With `O=C(NC1C2CN(Cc3ccccc3)CC21)C(O)c1ccccc1` (stereo not drawn) [Compound No. 117, (1α, 5α, 6α)-N-[3-benzyl-3-azabicyclo[3.1.0]-hex-6-yl]-2-hydroxy-2-phenylacetamide], the Ki at M3 muscarinic receptor and at M2 muscarinic receptor was over 1000 nM each time. The compound also registered a Functional Assay pKB in the assay with isolated rat bladder of 5.08.
Take `COC(=O)c1ccc(CCN2CC3C(C2)C3NC(=O)C(O)(c2ccccc2)C2CCCC2)cc1` (stereo not drawn) [Compound No. 66, (1α, 5α, 6α)-N-[3-(2-(4-methoxycarbonyl)phenyl)ethyl-3-azabicyclo[3.1.0]hex-6-yl]-2-hydroxy-2-cyclopentyl-2-phenylacetamide]: the Ki at M3 muscarinic receptor was 43.7 nM; at M2 muscarinic receptor, 537 nM. This compound showed a Functional Assay pKB in the assay with isolated rat bladder of 7.67.
On to `O=C(NC1C2CN(CCc3ccc(Cl)cc3)CC21)C(O)(c1ccccc1)C1CCCC1` (stereo not drawn) [Compound No. 17, (1α, 5α, 6α)-N-[3-(4-chlorophenethyl)-3-azabicyclo[3.1.0]hex-6-yl]-2-hydroxy-2-cyclopentyl-2-phenylacetamide], for which the figures for the Ki at M3 muscarinic receptor and at M2 muscarinic receptor were 79.4 nM and 501 nM, respectively. In the assay with isolated rat bladder, the Functional Assay pKB was found to be 7.02.
Turning to `CC(c1ccccc1)N1CC2C(C1)C2NC(=O)C(O)(c1ccccc1)C1CCCC1` (stereo not drawn) [Compound No. 21, (1α, 5α, 6α)-N-[3-(1-phenylethyl)-3-azabicyclo[3.1.0]hex-6-yl]-2-hydroxy-2-cyclopentyl-2-phenylacetamide], the figures for the Ki at M3 muscarinic receptor and at M2 muscarinic receptor were 25.1 nM and 631 nM, respectively. In the assay on isolated rat bladder, this compound came in with a Functional Assay pKB of 8.2.
Consider `O=C(NC1C2CN(Cc3cccs3)CC21)C(O)(c1ccccc1)C1CCCC1` (stereo not drawn) [Compound No. 3, (1α, 5α, 6α)-N-[3-(2-thienylmethyl)-3-azabicyclo[3.1.0]hex-6-yl]-2-hydroxy-2-cyclopentyl-2-phenylacetamide], for which the Ki at M3 muscarinic receptor is 525 nM; at M2 muscarinic receptor it was 3980 nM. In the assay on isolated rat bladder, the Functional Assay pKB amounted to 8.04.
For the compound `O=C(NC1C2CN(Cc3ccccc3)CC21)C(Cl)(c1ccccc1)C1CCCCC1` (stereo not drawn) [Compound No. 115, (1α, 5α, 6α)-N-[3-benzyl-3-azabicyclo[3.1.0]-hex-6-yl]-2-chloro-2-cyclohexyl-2-phenylacetamide], the Ki at M3 muscarinic receptor and at M2 muscarinic receptor was over 1000 nM each time. For the same compound, in the assay with isolated rat bladder, the Functional Assay pKB was 5.45.
Consider `CC(C)=CCCN1CC2C(C1)C2N(C)C(=O)C(O)(c1ccccc1)C1CCCC1` (stereo not drawn) [Compound No. 125, N-methyl-N-(1α, 5α, 6α)-N-[3-(4-methyl-3-pentenyl)-3-azabicyclo[3.1.0]-hex-6-yl]-2-cyclopentyl-2-hydroxy-2-phenylacetamide], for which the Ki at M3 muscarinic receptor is 26.3 nM; on M2 muscarinic receptor it was 24.5 nM. This compound yielded a Functional Assay pKB with isolated rat bladder of 8.36.
As to `Cc1ccc(C(C)N2CC3C(C2)C3NC(=O)C(O)(c2ccccc2)C2CCCC2)cc1` (stereo not drawn) [Compound No. 43, (1α, 5α, 6α)-N-[3-[1-(4-methylphenyl)ethyl]-3-azabicyclo[3.1.0]hex-6-yl]-2-hydroxy-2-cyclopentyl-2-phenylacetamide], the Ki at M3 muscarinic receptor is 58.9 nM; on M2 muscarinic receptor, 1230 nM. In the assay on isolated rat bladder, the Functional Assay pKB was 6.86.
For `CC(c1ccccc1)N1CC2C(C1)C2NC(=O)C(O)(c1ccccc1)C1CCCCC1` (stereo not drawn) [Compound No. 58, (1α, 5α, 6α)-N-[3-[1-(phenyl)ethyl]-3-azabicyclo [3.1.0]hex-6-yl]-2-hydroxy-2-cyclohexyl-2-phenylacetamide], in that order: 5.89 nM, 155 nM and 7.89.
For `CC(c1ccccc1)N1C[C@@H]2[C@H](C1)[C@H]2NC(=O)C(O)(c1ccccc1)C1CCCCCC1` (stereo partly drawn) [Compound No. 81, (1α, 5α, 6α)-N-[3-(1-phenylethyl)-3-azabicyclo[3.1.0]-hex-6-yl]-2-hydroxy-2-cycloheptyl-2-phenylacetamide], the “Receptor Binding Assay pKi M3” value at M3 muscarinic receptor was 8.62 -log M (pKi, unitless). Further, the “Receptor Binding Assay pKi M2” value at M2 muscarinic receptor amounted to 7.27. The same compound had a Functional Assay pKB in the assay with isolated rat bladder of 7.89.
In the case of `O=C(NC1C2CN(Cc3ccccc3)CC21)C(c1ccccc1)C1CCCCC1` (stereo not drawn) [Compound No. 116, (1α, 5α, 6α)-N-[3-benzyl-3-azabicyclo[3.1.0]-hex-6-yl]-2-cyclohexyl-1-2-phenylacetamide], the Ki on M3 muscarinic receptor and on M2 muscarinic receptor was over 1000 nM each time. Moreover, the Functional Assay pKB in the assay on isolated rat bladder turned out to be 6.03.
For the compound `O=C(NC1C2CN(Cc3cccs3)CC21)C(O)(c1ccccc1)C1CCCCC1` (stereo not drawn) [Compound No. 2, (1α, 5α, 6α)-N-[3-(2-Thienylmethyl)-3-azabicyclo[3.1.0]hex-6-yl]-2-hydroxy-2-cyclohexyl-2-phenylacetamide], the Ki at M3 muscarinic receptor was 129 nM; on M2 muscarinic receptor, 3160 nM. In addition, the Functional Assay pKB in the assay with isolated rat bladder is 7.52.
As for `O=C(NC1C2CN(CCCc3ccccc3)CC21)C(O)(c1ccccc1)C1CCCC1` (stereo not drawn) [Compound No. 19, (1α, 5α, 6α)-N-[3-(3-phenylpropyl)-3-azabicyclo[3.1.0]hex-6-yl]-2-hydroxy-2-cyclopentyl-2-phenylacetamide], the results for the Ki at M3 muscarinic receptor and on M2 muscarinic receptor were 776 nM and 2630 nM, respectively. In addition, the Functional Assay pKB with isolated rat bladder worked out at 7.52.
For `Cc1ccc(CCN2CC3C(C2)C3NC(=O)C(O)(c2ccccc2)C2CCCC2)cc1C` (stereo not drawn) [Compound No. 50], in that order: 43.7 nM, 813 nM and 7.48.
On to `O=C(N[C@H]1[C@@H]2CN(CCc3ccc(CO)cc3)C[C@@H]21)C(O)(c1ccccc1)C1CCCC1` (stereo partly drawn) [Compound No. 71, (1α, 5α, 6α)-N-[3-(4-hydroxymethylphenethyl)-3-azabicyclo [3.1.0]-hex-6-yl]-2-hydroxy-2-cyclopentyl-2-phenylacetamide], for which, on M3 muscarinic receptor, the “Receptor Binding Assay pKi M3” value is given as 7.37 -log M (pKi, unitless). Further, the “Receptor Binding Assay pKi M2” value on M2 muscarinic receptor is listed as 6.01. The Functional Assay pKB in the assay on isolated rat bladder is 6.8.
